# From the NIST ThermoML archive (doi:10.1016/j.jct.2017.03.004)
# ± gives the expanded uncertainty stated by the source.
# Key:
# [1] = for viscosity / mass density: 101 kPa, Liquid; for viscosity: Falling or rolling sphere viscometry; for mass density: Vibrating tube method
# [2] = activity coefficient (dimensionless); of the first substance listed, at infinite dilution; xn = mol fraction of the nth substance listed; details: 101.33 kPa, Liquid, Chromatography, x1 = 0
compound,measurement,setting,value
N#C[N-]C#N.OCCC[n+]1ccccc1 [N-(3-hydroxypropyl)pyridinium dicyanamide],viscosity,[1]; 298.15 K,115 ± 4 mPa·s
same,mass density,[1]; 298.15 K,1171.01 ± 2.9 kg/m3
same,mass density,[1]; 303.15 K,1167.78 ± 2.9 kg/m3
same,viscosity,[1]; 308.15 K,70.8 ± 1.8 mPa·s
same,mass density,[1]; 308.15 K,1164.58 ± 2.9 kg/m3
same,mass density,[1]; 313.15 K,1161.4 ± 2.9 kg/m3
same,viscosity,[1]; 318.15 K,47.1 ± 1.1 mPa·s
same,mass density,[1]; 318.15 K,1158.23 ± 2.9 kg/m3
same,mass density,[1]; 323.15 K,1155.09 ± 2.9 kg/m3
same,viscosity,[1]; 328.15 K,32.9 ± 0.8 mPa·s
same,mass density,[1]; 328.15 K,1151.97 ± 2.9 kg/m3
same,mass density,[1]; 333.15 K,1148.86 ± 2.9 kg/m3
same,viscosity,[1]; 338.15 K,23.4 ± 0.6 mPa·s
same,mass density,[1]; 338.15 K,1145.77 ± 2.9 kg/m3
same,mass density,[1]; 343.15 K,1142.69 ± 2.9 kg/m3
same,viscosity,[1]; 348.15 K,17.8 ± 0.4 mPa·s
same,mass density,[1]; 348.15 K,1139.63 ± 2.9 kg/m3
same,mass density,[1]; 353.15 K,1136.59 ± 2.9 kg/m3
same,viscosity,[1]; 358.15 K,14 ± 0.3 mPa·s
same,mass density,[1]; 358.15 K,1133.57 ± 2.9 kg/m3
same,mass density,[1]; 363.15 K,1130.58 ± 2.9 kg/m3
same,mass density,[1]; 368.15 K,1127.62 ± 2.9 kg/m3
same,Glass transition temperature,"[1]; Glass, DSC",-81 ± 0.8 °C
C1CCOC1 [tetrahydrofuran] + N#C[N-]C#N.OCCC[n+]1ccccc1,activity coefficient,[2]; 318.15 K,3.1 ± 0.21
same,activity coefficient,[2]; 328.15 K,3.25 ± 0.22
same,activity coefficient,[2]; 338.15 K,3.38 ± 0.23
same,activity coefficient,[2]; 348.15 K,3.53 ± 0.24
same,activity coefficient,[2]; 358.15 K,3.66 ± 0.25
same,activity coefficient,[2]; 368.15 K,3.79 ± 0.26
c1ccsc1 [thiophene] + N#C[N-]C#N.OCCC[n+]1ccccc1,activity coefficient,[2]; 318.15 K,2.6 ± 0.18
same,activity coefficient,[2]; 328.15 K,2.71 ± 0.18
same,activity coefficient,[2]; 338.15 K,2.81 ± 0.19
same,activity coefficient,[2]; 348.15 K,2.93 ± 0.2
same,activity coefficient,[2]; 358.15 K,3.03 ± 0.21
same,activity coefficient,[2]; 368.15 K,3.14 ± 0.21
Cc1ccccc1 [toluene] + N#C[N-]C#N.OCCC[n+]1ccccc1,activity coefficient,[2]; 318.15 K,8.44 ± 0.58
same,activity coefficient,[2]; 328.15 K,8.72 ± 0.59
same,activity coefficient,[2]; 338.15 K,9.03 ± 0.62
same,activity coefficient,[2]; 348.15 K,9.31 ± 0.64
same,activity coefficient,[2]; 358.15 K,9.58 ± 0.65
same,activity coefficient,[2]; 368.15 K,9.85 ± 0.67
O [water] + N#C[N-]C#N.OCCC[n+]1ccccc1,activity coefficient,[2]; 328.15 K,0.399 ± 0.034
same,activity coefficient,[2]; 338.15 K,0.411 ± 0.034
same,activity coefficient,[2]; 348.15 K,0.421 ± 0.035
same,activity coefficient,[2]; 358.15 K,0.432 ± 0.035
